Tests used:
ANA3CA cells = assay: Cell proliferation (Incucyte), ANA3CA; assay type: cell-based; conditions: Lin28a/Lin28b-positive
Description: (§1) To further evaluate whether the suppressive effects of Ln268 are specific to Lin28-positive cancer cells, we compared cell growth rates of DuNE (Lin28b-positive line) and Du145 (Lin28b-negative line), both of which are Lin28a-negative. DuNE has the same genomic background with Du145 except for the transduction of the SRRM4 gene. […] Furthermore, Ln268 had no impact on the cell growth of DuNE(KO) cells, in which the Lin28b gene was knocked out by CRISPR (Fig. 5C). […] We also tested several ovarian and endometrial cancer cell lines with different Lin28a and Lin28b expression profiles (Fig. 5E).

Lin28b ZKD = molecular target: T1, Lin28b ZKD (Homo sapiens, UniProt Q6ZN17); assay: EMSA, Lin28b ZKD:pre-let-7d complex formation; assay type: binding; conditions: 1 μM Lin28 ZKD, 10 nM IRDye800-labeled pre-let-7d probe
T1 sequence (Q6ZN17 127-166 limits assumed): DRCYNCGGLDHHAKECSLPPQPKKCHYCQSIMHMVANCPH
Procedure: We next validated the newly developed compounds using EMSA, a non-florescent-based assay to detect Lin28b ZKD:pre-let-7 complex formation. Similar to the FP assays, we first optimized the experimental conditions by titrating: (1) IRDye800-labeled pre-let-7d RNA probe, (2) Lin28b ZKD protein, and (3) non-labeled pre-let-7 probe as a competitor (Fig. 2C). For the validation experiments, 1 μM Lin28 ZKD and 10 nM of IRDye800-labeled pre-let-7d probe were mixed with each candidate compound. Compounds C1632 and Ln15 were used as control Lin28 inhibitors, respectively. […] Regardless, we use these two biochemical assays to shortlist the most promising compounds for further characterization. […] While our inhibitors directly target the Lin28 ZKD, it is unclear whether C1632 may bind to domains other than the ZKD or allosterically disrupt Lin28’s capacity to bind its RNA substrates.
EMSA followed the standard protocols we published. An IRDye800CWN-labeled pre-Let-7d RNA probe (5’-IRD800CWN-[…]-3’) was purchased from IDT (Coralville, IA, USA). Lin28a or Lin28b proteins were incubated with 300 nM of probe in a standard 20 uL EMSA reaction in a reaction buffer containing 20 mM HEPES-NaOH, pH 7.4, 2 mM DTT, 3 mM MgCl2, 0.05% NP-40, protease inhibitors, and 0.1 ug poly[dI:dC]. After incubation for 30 min at 37 °C, reactions were loaded onto 4% non-denatured polyacrylamide gel in 0.5× TBE buffer. The RNA oligo bands were visualized by using the Li-Cor Odyssey 9120 Infrared Imaging System.

DuNE cells = assay: Colony formation assay, DuNE cells; assay type: cell-based; conditions: 14 days, vs vehicle (~50 colonies)
Description: CSCs have characteristic tumorigenic, self-renewal, and differentiation properties. The self-renewal ability is hijacked by CSCs that makes them both tumorigenic and capable of sustaining long-term tumor growth, which can be evaluated by 3D spheroid and colony formation assays. We established a DuNE spheroid model in which DuNE cells formed 3D spheroids in 96-well plates (Figure S3). By integrating this 3D culture with the Incucyte live-cell imaging system, we quantified the sizes of the spheroid growth over 0–6 days to generate a spheroid growth curve. Using this model system, we treated the DuNE spheroids with increasing doses (0–100 μM) of C1632, Ln15, and Ln268 for 0–6 days. […] In addition, classic colony formation assays were used to measure the stemness in the DuNE model. Colony formation counts, which were ~50 under vehicle treatment after 14 days, decreased by 22% in C1632-treated plates, and by 75% and 96% in the Ln15 and Ln268 treated plates, respectively (Fig. 4D).
In the colony formation assays, cancer cells were seeded in 0.7% soft agar in a 6-well plate, with a 1% soft agar bottom base coating. Cells were allowed to grow for 14 days to form colonies. Colonies were stained with crystal violet and imaged by stitching 5X field images together to capture the entire well (Zeiss light microscope [Carl Zeiss]). Colony numbers were counted according to their diameters (100-300um or >300um). Three independent biological replicates were performed for all the assays.

[1] = tested on: Lin28b, let-7 target, CSC and NE biomarker genes in DuNE cells; assay: Gene expression (real-time qPCR, immunoblotting) in DuNE cells; assay type: cell-based; conditions: 72 h
Procedure: Fig. 4 Ln268 strongly blocks cancer cell stemness of t-NEPC cells. A, B DuNE cells were treated with C1632, Ln15, and Ln268 for 72 h. Selected Let-7 targeted genes, stem cell biomarkers and NE biomarkers were measured by real-time qPCR (A). Lin28b and its downstream HMGA2 protein levels were measured by immunoblotting (B). C DuNE spheroids were treated with 0–100 μM of C1632, Ln15, and Ln268 for 0–6 days. Spheroid sizes were measured and plotted. D DuNE cells were used to perform colony formation assays in the presence of C1632, Ln15 and Ln268 for 14 days. The number of colonies formed in each treatment counted and plotted. E DuNE cells under 3D culture conditions were treated with C1632, Ln15, and Ln268 at the indicated concentrations. Cell growth rates were measured by Incucyte. F DuNE cells were treated with 0–20 μM Ln268 for 144 h. FACS measured cell populations at each stage of cell cycling. Three independent biological replicates were performed for all the assays. All results are presented as the mean ± SD.
Total RNA was extracted by TRIZOL reagent (Invitrogen), treated with deoxyribonuclease and reversely transcribed by random hexamers and superscript II (Invitrogen). Real-time qPCR was performed on the ABI PRISM 7900 HT system (Applied Biosystems) using the FastStart Universal SYBR Green Master mix (Roche) following standard protocol as we reported. […]

TOV-112D cells = assay: Cell proliferation (Incucyte), TOV-112D; assay type: cell-based; conditions: Lin28a/Lin28b-positive
Description: as §1

SMILES: O=c1[nH]c(Nc2ccc(F)cc2O)cs1 [Ln268]
- effect on growth of ANA3CA cells (ANA3CA cells): suppressed the growth
- inhibition of Lin28b ZKD:pre-let-7d complex formation (EMSA) (Lin28b ZKD): capable of inhibiting Lin28:pre-let-7d complex formation in a dose-dependent manner
- decrease of colony formation counts (DuNE cells): 96%
- effect on Lin28b mRNA and protein levels [1]: potently inhibited Lin28b at both mRNA and protein levels
- inhibition of Oct4, Nanog and ID4 expression relative to C1632 ([1]; qPCR): stronger inhibitory effects than C1632
- effect on growth of TOV-112D cells (TOV-112D cells): suppressed the growth
